Results on eleven compounds are retold here after ChEMBL document CHEMBL4052588, “Design of a Biased Potent Small Molecule Inhibitor of the Bromodomain and PHD Finger-Containing (BRPF) Proteins Suitable for Cellular and in Vivo Studies” (J Med Chem, 2017).

Test [1] has as its target T1, Bromodomain and PHD finger-containing protein 3 (Homo sapiens, UniProt Q9ULD4).
T1 sequence (Q9ULD4 whole entry): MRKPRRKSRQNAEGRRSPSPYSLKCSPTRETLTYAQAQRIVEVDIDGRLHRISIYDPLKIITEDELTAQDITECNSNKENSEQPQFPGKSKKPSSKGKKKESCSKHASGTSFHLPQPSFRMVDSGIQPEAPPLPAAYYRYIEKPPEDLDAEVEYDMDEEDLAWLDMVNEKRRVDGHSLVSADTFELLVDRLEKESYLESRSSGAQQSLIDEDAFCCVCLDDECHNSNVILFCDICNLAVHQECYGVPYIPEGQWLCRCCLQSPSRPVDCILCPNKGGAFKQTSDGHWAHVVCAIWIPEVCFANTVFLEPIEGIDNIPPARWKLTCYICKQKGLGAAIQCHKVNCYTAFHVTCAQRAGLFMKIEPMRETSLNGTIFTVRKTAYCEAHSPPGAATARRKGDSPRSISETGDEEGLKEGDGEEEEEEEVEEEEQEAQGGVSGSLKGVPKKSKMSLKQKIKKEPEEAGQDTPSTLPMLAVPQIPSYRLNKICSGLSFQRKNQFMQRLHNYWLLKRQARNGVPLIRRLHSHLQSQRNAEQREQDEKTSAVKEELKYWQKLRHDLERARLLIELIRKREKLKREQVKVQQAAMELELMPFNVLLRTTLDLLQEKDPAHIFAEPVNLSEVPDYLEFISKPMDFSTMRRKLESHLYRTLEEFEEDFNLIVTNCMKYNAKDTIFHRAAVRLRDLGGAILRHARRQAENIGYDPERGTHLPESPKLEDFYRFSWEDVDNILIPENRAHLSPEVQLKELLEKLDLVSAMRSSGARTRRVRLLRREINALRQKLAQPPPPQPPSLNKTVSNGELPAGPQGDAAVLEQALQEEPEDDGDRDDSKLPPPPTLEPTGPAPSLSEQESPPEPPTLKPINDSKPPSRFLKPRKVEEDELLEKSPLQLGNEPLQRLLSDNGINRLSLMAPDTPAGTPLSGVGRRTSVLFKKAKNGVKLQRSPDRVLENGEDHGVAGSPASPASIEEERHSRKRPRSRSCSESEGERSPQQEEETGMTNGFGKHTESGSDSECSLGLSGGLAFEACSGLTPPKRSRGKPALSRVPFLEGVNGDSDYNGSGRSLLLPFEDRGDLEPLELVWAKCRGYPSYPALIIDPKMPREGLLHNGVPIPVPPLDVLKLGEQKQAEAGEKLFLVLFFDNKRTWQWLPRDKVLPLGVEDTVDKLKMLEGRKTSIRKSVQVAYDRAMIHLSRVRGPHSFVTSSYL
Description: Inhibition of human BRPF3 expressed in Escherichia coli BL21 after 1 hr by BROMOscan assay.

In test [2] the target is T2, Bromodomain-containing protein 4 (Homo sapiens, UniProt O60885).
Test [3] addresses T2, Bromodomain-containing protein 4. Description: Inhibition of human BRD4-BD1 expressed in Escherichia coli BL21 after 1 hr by BROMOscan assay.
Test [4] has as its target T3, Bromodomain-containing protein 1 (Homo sapiens) (UniProt O95696).
T3 sequence (whole entry): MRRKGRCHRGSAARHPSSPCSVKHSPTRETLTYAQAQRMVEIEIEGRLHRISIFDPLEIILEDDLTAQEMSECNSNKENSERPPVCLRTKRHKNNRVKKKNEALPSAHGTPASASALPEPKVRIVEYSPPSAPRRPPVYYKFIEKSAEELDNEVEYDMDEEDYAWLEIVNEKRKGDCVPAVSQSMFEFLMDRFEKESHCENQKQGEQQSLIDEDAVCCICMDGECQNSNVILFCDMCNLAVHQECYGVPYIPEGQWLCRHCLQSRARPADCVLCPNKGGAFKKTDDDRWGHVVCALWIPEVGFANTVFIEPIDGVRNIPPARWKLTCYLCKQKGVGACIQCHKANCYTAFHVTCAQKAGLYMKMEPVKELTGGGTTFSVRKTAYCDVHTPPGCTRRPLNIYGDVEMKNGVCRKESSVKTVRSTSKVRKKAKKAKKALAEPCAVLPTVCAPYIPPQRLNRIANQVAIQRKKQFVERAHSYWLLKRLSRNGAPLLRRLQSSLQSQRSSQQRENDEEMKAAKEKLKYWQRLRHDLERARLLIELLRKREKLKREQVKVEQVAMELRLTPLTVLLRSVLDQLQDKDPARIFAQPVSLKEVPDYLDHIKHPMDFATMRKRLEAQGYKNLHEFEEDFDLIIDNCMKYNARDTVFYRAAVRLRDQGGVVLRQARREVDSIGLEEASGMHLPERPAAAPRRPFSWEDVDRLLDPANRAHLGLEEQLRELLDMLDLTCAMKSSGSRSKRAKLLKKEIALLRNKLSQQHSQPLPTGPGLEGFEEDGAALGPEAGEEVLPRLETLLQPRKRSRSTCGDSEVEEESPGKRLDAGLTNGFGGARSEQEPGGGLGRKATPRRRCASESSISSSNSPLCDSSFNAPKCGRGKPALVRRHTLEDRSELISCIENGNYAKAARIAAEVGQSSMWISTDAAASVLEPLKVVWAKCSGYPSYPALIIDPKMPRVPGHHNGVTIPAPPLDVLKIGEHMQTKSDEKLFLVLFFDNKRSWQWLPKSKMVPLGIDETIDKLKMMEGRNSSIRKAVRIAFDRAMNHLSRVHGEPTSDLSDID

The target in test [5] is T4, Bromodomain-containing protein 9 (Homo sapiens) (UniProt Q9H8M2).
T4 sequence (whole entry): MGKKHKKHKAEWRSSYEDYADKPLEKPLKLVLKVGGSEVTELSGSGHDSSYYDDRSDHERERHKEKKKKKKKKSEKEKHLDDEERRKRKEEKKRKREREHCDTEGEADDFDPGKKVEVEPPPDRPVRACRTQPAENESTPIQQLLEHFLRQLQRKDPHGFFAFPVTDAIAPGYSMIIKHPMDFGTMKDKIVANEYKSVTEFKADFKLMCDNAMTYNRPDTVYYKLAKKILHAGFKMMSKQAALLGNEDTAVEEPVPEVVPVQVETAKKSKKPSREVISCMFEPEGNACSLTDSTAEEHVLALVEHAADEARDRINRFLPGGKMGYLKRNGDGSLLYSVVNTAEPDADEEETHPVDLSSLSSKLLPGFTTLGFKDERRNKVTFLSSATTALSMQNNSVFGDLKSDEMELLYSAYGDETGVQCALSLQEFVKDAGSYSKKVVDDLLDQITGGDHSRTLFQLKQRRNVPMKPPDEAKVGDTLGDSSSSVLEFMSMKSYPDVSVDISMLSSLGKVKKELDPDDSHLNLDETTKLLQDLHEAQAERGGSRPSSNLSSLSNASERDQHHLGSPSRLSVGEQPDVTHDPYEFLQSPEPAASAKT

The target of test [6] is T5, Bromodomain and PHD finger-containing protein 3 (Homo sapiens) (UniProt Q9ULD4).
T5 sequence (whole entry): T1 sequence (Q9ULD4 whole entry)

The target of test [7] is T6, Peregrin (Homo sapiens, UniProt P55201).
T6 sequence (P55201 whole entry): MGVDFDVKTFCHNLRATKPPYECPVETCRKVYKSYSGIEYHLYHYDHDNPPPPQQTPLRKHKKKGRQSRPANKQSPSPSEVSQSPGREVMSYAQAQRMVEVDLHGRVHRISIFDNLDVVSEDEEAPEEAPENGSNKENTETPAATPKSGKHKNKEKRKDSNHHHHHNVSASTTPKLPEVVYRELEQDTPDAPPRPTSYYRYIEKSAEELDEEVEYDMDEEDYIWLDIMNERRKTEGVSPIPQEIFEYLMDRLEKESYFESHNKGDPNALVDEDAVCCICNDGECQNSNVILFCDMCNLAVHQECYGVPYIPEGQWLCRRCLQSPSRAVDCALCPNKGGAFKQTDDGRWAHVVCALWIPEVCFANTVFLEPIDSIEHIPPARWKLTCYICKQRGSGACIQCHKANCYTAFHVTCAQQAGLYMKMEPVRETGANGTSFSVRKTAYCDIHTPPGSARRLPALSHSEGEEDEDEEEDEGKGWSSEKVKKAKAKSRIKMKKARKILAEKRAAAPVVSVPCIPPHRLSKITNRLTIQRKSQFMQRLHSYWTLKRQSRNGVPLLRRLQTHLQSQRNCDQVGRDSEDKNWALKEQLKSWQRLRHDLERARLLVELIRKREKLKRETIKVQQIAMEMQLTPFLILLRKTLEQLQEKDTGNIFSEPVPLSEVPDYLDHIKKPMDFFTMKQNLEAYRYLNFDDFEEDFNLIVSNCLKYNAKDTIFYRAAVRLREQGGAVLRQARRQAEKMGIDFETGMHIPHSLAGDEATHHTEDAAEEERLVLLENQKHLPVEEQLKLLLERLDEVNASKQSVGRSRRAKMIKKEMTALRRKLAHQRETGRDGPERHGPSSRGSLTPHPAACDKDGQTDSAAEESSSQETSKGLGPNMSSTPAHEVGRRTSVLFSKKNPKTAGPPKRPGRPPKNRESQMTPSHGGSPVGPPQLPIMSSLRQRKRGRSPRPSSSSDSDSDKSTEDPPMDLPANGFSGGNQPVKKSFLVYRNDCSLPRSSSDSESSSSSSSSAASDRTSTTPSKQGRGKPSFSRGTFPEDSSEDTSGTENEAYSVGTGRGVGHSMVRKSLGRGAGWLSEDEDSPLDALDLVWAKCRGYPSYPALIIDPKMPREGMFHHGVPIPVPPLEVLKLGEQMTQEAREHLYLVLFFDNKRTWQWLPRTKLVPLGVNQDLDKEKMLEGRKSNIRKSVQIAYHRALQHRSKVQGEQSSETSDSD
Description: Inhibition of human BRPF1 expressed in Escherichia coli BL21 after 1 hr by BROMOscan assay.

The target in test [8] is T7, Peregrin (Homo sapiens) (UniProt P55201).
T7 sequence (whole entry): T6 sequence (P55201 whole entry)

Test [9] deals with T8, Bromodomain-containing protein 9 (Homo sapiens, UniProt Q9H8M2).
T8 sequence (Q9H8M2 whole entry): T4 sequence (whole entry)
Description: Inhibition of human BRD9 expressed in Escherichia coli BL21 after 1 hr by BROMOscan assay.

Test [10] has as its target T9, Bromodomain-containing protein 1 (Homo sapiens, UniProt O95696).
T9 sequence (O95696 whole entry): T3 sequence (whole entry)
Description: Inhibition of human BRPF2-BRD1 expressed in Escherichia coli BL21 after 1 hr by BROMOscan assay.

Each structure is given as a SMILES string.

`Cn1c(=O)ccc2cc(NS(=O)(=O)c3ccc(C#N)cc3)ccc21`: the IC50 in [1] is 1 µM; in test [3] it was 2.8 µM. The ΔTm in test [2] came to 1.4 °C; in [4], 2.4 °C; in [5] it was 2.3 °C.
Consider `CCn1c(=O)c(C)cc2cc(NS(=O)(=O)c3ccc(C#N)cc3)ccc21`, for which the ΔTm was found to be 1.2 °C in [6], 5.2 °C in test [8] and 1.5 °C in test [4]. Also, the IC50 in test [7] amounted to 0.015 µM.
Consider `Cn1c(=O)ccc2cc(NS(=O)(=O)c3ccc(C#N)cc3F)ccc21`, for which the results for the ΔTm in test [6], in [8] and in test [4] were 1.2 °C, 3.6 °C and 1.3 °C, respectively.
Consider `Cn1c(=O)ccc2cc(NS(=O)(=O)c3ccccc3C#N)ccc21`, for which the ΔTm was determined as 1.3 °C in [2], 0.9 °C in test [4] and 2.9 °C in [5].
The compound `CCc1cc2cc(NS(=O)(=O)c3ccc(C#N)cc3)ccc2n(C)c1=O` showed an IC50 in test [7] of 0.18 µM. For the same compound, the ΔTm in test [4] turned out to be 3.3 °C.
As for `Cn1c(=O)ccc2cc(NS(=O)(=O)c3ccccc3)ccc21`, the ΔTm in [6] was found to be 1.5 °C; in [2], 1.1 °C; in test [4], 1.9 °C; in test [5], 3.5 °C. Moreover, the IC50 in [9] turned out to be 0.22 µM; in test [3] it was 1.7 µM.
With `COc1ccccc1S(=O)(=O)Nc1ccc2c(c1)cc(C)c(=O)n2C`, the half-inhibitory concentration (IC50) in [3] was determined as 0.6 µM.
Consider `Cc1cc2cc(N)ccc2n(C)c1=O`, for which, in test [7], the IC50 came out at 0.19 µM.
As for `Cn1c(=O)ccc2cc(NS(=O)(=O)c3cccc(C#N)c3)ccc21`, the ΔTm in test [2] amounted to 1.1 °C; in test [4], 2.1 °C; in [5] it was 2.5 °C.
The compound `Cn1c(=O)ccc2cc(N)ccc21` showed an IC50 in [7] of 2.1 µM.
In the case of `Cn1c(=O)ccc2cc(NS(=O)(=O)c3ccc(Cl)c(Cl)c3)ccc21`, the IC50 is 0.044 µM in [7] and 0.23 µM in test [10]. The ΔTm stood at 4.9 °C in test [8] and 2.5 °C in test [4].
